# From a melting point compilation (Tetko et al.; mined from patent text by program, amines drawn as free bases though some values may be those of a salt)
row,SMILES,melting point
1,Cn1cncc1COc1nn2c(-c3ccccc3)nnc2cc1-c1ccccc1,195 to 196 °C
2,CCCCCCOc1ccc(-c2nc(-c3ccc(OCCCCCC)cc3O)nc(-c3ccc(OCCCCCC)cc3O)n2)c(O)c1,125 to 127 °C
3,O=C1OCc2c1oc1c(F)cccc1c2=O,164 °C
4,CCCCCCOc1ccc(-c2cc(C=O)ccc2C=O)cc1,44.5 to 45.5 °C
5,COc1ccc(CC2CCc3ncc(C)cc3C2=O)cc1 (configuration not stated),92 to 93 °C
6,COc1ccc(S(=O)(=O)CC(O)(CS(=O)(=O)c2ccc(OC)cc2)C(=O)NO)cc1,75 to 80 °C
7,CC(Br)c1nc2ccccc2c(=O)n1-c1ccc(F)cc1 (configuration not stated),180 °C
8,CCOC(=O)COc1ccc(N(C)c2cc3ccc(Cl)cc3c(Cl)n2)cc1,99 °C
9,Fc1ccc(C2=NOC(c3cc(Cl)cc(Cl)c3)(C(F)(F)F)C2)cc1Br (configuration not stated),132 °C
10,O=C(Cn1c(-c2ccc(F)cc2)ncc(NC(=O)OCc2ccccc2)c1=O)N[C@@H](Cc1ccccc1)C(=O)C(F)(F)C(=O)NCc1ccccc1,185 to 186 °C
11,CCCCCCCCCCCCCCCCCC[C@@H]1OC(=O)C(O)=C1O,110 to 112 °C
12,O=S1(=O)N=CN(C2CC2)c2c(Cl)cccc21,159 to 160 °C
13,Cc1cccc(C)c1CNc1cc(C(=O)N2CC2)cc2c1nc(C)n2C,201 to 202 °C
14,CCOC(=O)COc1cccc(CN2C(=O)C3(COc4cc5c(cc43)CCO5)c3ccccc32)c1 (configuration not stated),45 to 46 °C
15,COc1cc(OC)cc(C2CCCCC2=O)c1 (configuration not stated),61 to 62 °C
16,OCc1ccc(OCc2coc(-c3ccccc3)n2)cc1,141 to 142 °C
17,Cc1cccc(N2CC(c3cccc(-c4ccc(S(C)(=O)=O)cc4)c3)=CN2)n1,95 to 97 °C
18,CCOC(=O)C1CCC(=O)NC1=O (configuration not stated),69 to 74 °C
19,COCCNC(=O)c1cc(F)cc(-c2cccc3cc(Cc4ccc(F)c(Cl)c4)sc23)c1,108 to 109 °C
20,Cc1ccccc1N1CCN(C2CCc3cc(O)ccc3C2)CC1 (configuration not stated),177 to 179 °C
21,Clc1cc(Cl)c2[nH]c(-c3ccccc3)cc2c1,136 to 138 °C
22,CC(=O)OCC(=O)C1CC(OS(=O)(=O)c2c(C)cc(C)cc2C)C2C3CCC4CC(OC(C)=O)CCC4(C)C3CC(OC(C)=O)C12C (configuration not stated),156 to 157 °C
23,CCOC(=O)C(=CC(=CN(C)C)C(=O)C(=O)OC)Sc1ccccc1,118 °C
24,O=C(NCc1ccc(Cl)cc1)c1ccc2cnccc2n1,110 to 111 °C

row,SMILES,melting point
1,COc1ccc(-c2c(C)c(NC(=O)CC(C)(C)C)c(C)c3c2OCC3c2ccc(C(C)C)cc2)cc1 (configuration not stated),129 to 131 °C
2,CCc1nc(N)nc(N)c1-c1ccc(NC)c([N+](=O)[O-])c1,262 to 265 °C
3,OCC=C(c1ccccc1)c1ccccc1,112 to 115 °C
4,Clc1ccc(-c2onc3c(CBr)cccc23)c(Cl)c1,108 to 110 °C
5,NNC(=O)Cn1c(=S)sc2ccccc21,214 to 215 °C
6,CCCCOc1ccc(S(=O)(=O)C2(C(=O)O)CCN(C)CC2)cc1,118 °C
7,CCC(CC)Nc1nc(C)nc(N2CCc3cc(OC)cc(Cl)c32)c1C#N,192 to 194 °C
8,CCOC(=O)CCc1ccc2cc(O)ccc2c1,90 to 91 °C
9,Cc1nc(NC2CC2)ccc1N1CCCn2c1nc1c(Cl)ccc(C(OC(F)F)C(F)(F)F)c12 (configuration not stated),168 to 170 °C
10,CSc1cn(C(c2ccccc2)(c2ccccc2)c2ccccc2)c(F)n1,142 to 143 °C
11,O=C1CCC(N2C(=O)c3cccc(CNC(=O)c4cc5ccccc5cn4)c3C2=O)C(=O)N1 (configuration not stated),198 to 200 °C
12,COc1cc(C)c(C(=O)c2ccccc2)c(OC)c1OC,88 to 89 °C
13,Cc1cc(SC(Sc2cc(C)c(O)c(C(C)(C)C)c2)Sc2cc(C)c(O)c(C(C)(C)C)c2)cc(C(C)(C)C)c1O,171 to 172 °C
14,CCCCOCCOc1ccc(-c2ccc(N3CCOCC3)c(C=CC(=O)O)c2)cc1,155 to 157 °C
15,Cc1ccc2c(Cl)nccc2c1[N+](=O)[O-],171 to 173 °C
16,O=C1CCC(O)(c2nc3ccccc3s2)C(Sc2ccccc2)(Sc2ccccc2)C1 (configuration not stated),150 to 151 °C
17,CNC(=O)CCCCc1csc(NC(N)=NCC(F)(F)F)n1,122 to 126 °C
18,CCC1(C)NC(=O)N=C1SCc1ccccc1N(C)C (configuration not stated),111 to 113 °C
19,COC(=O)c1cccc(COC(OC(C)=O)C(=O)c2ccccc2)c1 (configuration not stated),86 to 87 °C
20,Cc1noc(NS(=O)(=O)c2cc(S(=O)(=O)c3ccccc3)cs2)c1Br,181 to 184 °C
21,O=C(NC(=O)c1ccc(OCCn2ccnc2)cc1)c1ccccc1,152 to 154 °C
22,NP(N)(=O)NC(=O)CCc1ccccc1,> 300 °C
23,CNc1c(F)cc2c(=O)c(C(=O)O)cn(-c3ccc(F)c(OC)c3)c2c1Cl,250 to 253 °C
24,COc1cc(OC)c(/C=C2/C(=O)NC(=O)/C2=C/c2ccccc2)c(OC)c1,246 to 248 °C

row,SMILES,melting point
1,NS(=O)(=O)c1ccc(-c2noc(-c3cnn4c(C(F)(F)F)cc(-c5ccc(Cl)cc5)nc34)n2)cc1,296 °C
2,C#CC(C)(C)Oc1ccc2ncccc2c1,65 to 67 °C
3,Cc1cc(CCNc2ncnc3c(F)ccc(F)c23)ccc1Oc1cc(C(F)(F)F)ccn1,108 to 110 °C
4,CSC1=C([N+](=O)[O-])CCCN1,230 to 232 °C
5,Cc1ccc(COn2c(C)c(C(C)C(=O)O)c3cc4c(cc32)OCO4)cc1 (configuration not stated),172 to 175 °C
6,CN(C)CCOC(=O)C(=O)c1ccc(OCCOc2ccc3ccccc3c2)cc1,93 to 94 °C
7,COc1ccc(C#N)cc1C(=O)NCCN1CCC(C(=O)c2ccc(F)cc2)CC1,167 to 169 °C
8,Cc1cc(Br)ccc1-n1c(CF)nc2ccc(N)cc2c1=O,194 to 196 °C
9,CC1=C2CCC(=O)C23CCC(C3)C1(C)C (configuration not stated),35 to 36 °C
10,NC(=O)N(O)CC#Cc1cccc(Oc2ccccn2)c1,158 to 160 °C
11,OC1N=C(c2ccccc2Cl)c2cc(Cl)ccc2-c2ncncc21 (configuration not stated),105 to 117 °C
12,CCOC(=O)CC1(S(N)(=O)=O)c2cc(F)ccc2-c2ccc(F)cc21,215 to 217 °C
13,C=CCC(=C)C(O)C(NC=O)C(=O)OC (configuration not stated),75 to 77 °C
14,CCCNC(=O)C(C)Cc1ccc2cccc(Cc3ccc(C(=O)NS(=O)(=O)c4ccccc4C)cc3OC)c2c1 (configuration not stated),210 to 212 °C
15,COC(=O)COCCOc1ccc([N+](=O)[O-])cc1,96 to 97.8 °C
16,CN(C)c1cc(Oc2cccc(C(F)(F)F)c2)nc(C(=O)NN=CC(F)(F)C(F)(F)F)c1,108 to 109 °C
17,COc1cc(Nc2nccc(Nc3ccc(N4CCOCC4)cc3)n2)cc(OC)c1OC,214 °C
18,CC(c1oc2ccccc2c(=O)c1-c1cccc(F)c1)n1nc(-c2cccc(C(=O)NC3CC3)c2)c2c(N)ncnc21 (configuration not stated),127 to 132 °C
19,CCC(=O)c1cc2c(cc1O)CCCC2,57 to 58 °C
20,Oc1cccc2c1CCC(n1cc[nH]c1=S)C2 (configuration not stated),263 to 265 °C
21,CCCCCNC(=O)CC(=O)O,67.5 to 68.5 °C
22,CCCC[C@H](NC(=O)[C@H](CC(C)C)NC(=O)c1cccc(C)c1)C(=O)CSCc1ccco1,123 to 126 °C

# Second part, the compound after the results:
row,melting point,SMILES
1,147 to 148 °C,CCc1nc(C)cn1S(=O)(=O)c1c[nH]cn1
2,157 to 158 °C,Clc1cccc(-c2nc(Cl)c3ccccc3n2)c1
3,91 to 95 °C,ClCc1ccc(OCCC(c2ccccc2)(c2ccccc2)c2ccccc2)cc1
4,274 to 276 °C,COc1cccc2nc(C)n(C3CCC(=O)NC3=O)c(=O)c12 (configuration not stated)
5,121 °C,NCc1cccc(N2C(=O)N(c3ccccc3Br)Cc3cnc(Nc4ccccc4)nc32)c1
6,130 to 131 °C,O=C(O)COCCCCN(c1cnc(-c2ccccc2)c(-c2ccccc2)n1)C1CCCCC1
7,268 to 269 °C,CC(C)(O)c1ccc(-c2cnc3c(n2)N(CC2CCOCC2)CC(=O)N3)cn1
8,327 to 329 °C,Cc1cccc2oc(Nc3ccc(C(=O)O)cc3)nc12
9,96 to 100 °C,COC(=O)CCC#Cc1nc(Cl)ccc1N
10,183 to 185 °C,N#CCCCOc1ccc(/C=C/C(=O)O)c(Oc2ncc(C(F)(F)F)cc2Cl)c1
11,209 °C,O=C1c2ccc(OCCO)cc2C(=O)c2cc3ccccc3cc21
12,172 to 174 °C,COc1ccc2c(c1)c(CCC(=O)O)cn2S(=O)(=O)c1ccc(C)cc1
13,> 300 °C,NS(=O)(=O)N1CC2(CCN(C(=O)Nc3nnc(-c4ccccc4)s3)CC2)c2ccccc21
14,128 to 129 °C,O=C(Cl)N1CCC(Oc2cccc3c2CCC3)C1 (configuration not stated)
15,204 to 207 °C,Cc1cccc(Nc2cc(Nc3ccc(OCCCN(C)C)cc3)ncn2)c1
16,248 to 249 °C,NC(=O)c1sc(-n2cnc3cnc(Cl)cc32)cc1OCc1ccccc1C(F)(F)F

row,melting point,SMILES
1,49 to 51 °C,NC(=O)c1nnn(Cc2ccccc2F)c1C(N)=O
2,134 to 136 °C,CC(C)(C)c1cc(C=O)c(O)c(S(C)(=O)=O)c1
3,61 to 63 °C,FC(F)(F)c1ccc(OCCC(Br)c2ccccc2)cc1 (configuration not stated)
4,31 to 33 °C,CCCCCCCCCCCCCCOc1cccc(CC(=O)OC)c1
5,> 360 °C,N#Cc1c(N)nc2ccc([N+](=O)[O-])cc2c1O
6,105 to 120 °C,CC(C)(C)c1ccc(S(=O)(=O)N2c3ccccc3C[C@H]2C(=O)NCc2ccc(C(=O)O)cc2)cc1
7,165 to 166 °C,CCOC(=O)CNC(=O)NCCCSc1nccc(NC(N)=NCC(F)(F)F)n1
8,122 to 123 °C,COC(=O)C(=NO)c1cccc(Oc2ccccc2)c1
9,160 °C,Cc1nc2c(OCc3ccccc3)cc(C(=O)N(C)C)cn2c1C
10,69 to 71 °C,O=Cc1c(F)cc(F)cc1-c1ccc(F)cc1
11,134 to 137 °C,O=Cc1cc2ccccc2[nH]1
12,126 to 127 °C,CSC[C@H](NC(C)=O)C(=O)NO
13,128 to 130 °C,COC(=O)c1c(O)c(Br)c(Br)n1C
14,108 to 110 °C,CC(C)OC(=O)c1cc([N+](=O)[O-])c(O)c([N+](=O)[O-])c1
15,150 to 151 °C,CS(=O)(=O)Nc1cccc(C(=O)NCCN2CCC(Oc3ccc(Cl)c(Cl)c3)CC2)c1
16,132 °C,CCCCN1C(=O)NC(CC(=O)O)C1=O (configuration not stated)
